In US7476668B2, “Thiadiazine derivatives and use thereof as positive AMPA receptor modulators” (Les Laboratoires Servier, priority 2003, dated 2009):

System: AMPA receptors (rat cerebral cortex poly(A+) mRNA expressed in Xenopus oocytes)
Experiment: Excitatory currents induced by AMPA in Xenopus oocytes (two-electrode voltage-clamp)
Type: cell-based
Details: (S)-AMPA 10 μM; Xenopus oocytes injected with rat cortex mRNA; 20-24° C.
Method: Study of the Excitatory Currents Induced by AMPA in Xenopus Oocytes
mRNA's are prepared from cerebral cortex of male Wistar rats by the guanidinium thiocyanate/phenol/chloroform method. The poly (A^+) mRNA's are isolated by chromatography on oligo-dT cellulose and injected at a level of 50 ng per oocyte. The oocytes are incubated for 2 to 3 days at 18° C. to permit expression of the receptors and are then stored at 8-10° C.
Electrophysiological recording is carried out in a Plexiglass® chamber at 20-24° C. in OR2 medium (J. Exp. Zool., 1973, 184, 321-334) by the “voltage-clamp” method using two electrodes, a third electrode being placed in the bath serving as reference.
All the compounds are applied via the incubation medium and the electric current is measured at the end of the application period. (S)-AMPA is used in a concentration of 10 μM. For each compound studied, the concentration that doubles (EC2X) or quintuples (EC5X) the intensity of the current induced by AMPA alone (5 to 50 nA) is determined.
The compounds of the invention potentiate the excitatory effects induced by (S)-AMPA to a very considerable degree.

| SMILES | EC2X (concentration that doubles the intensity of the current induced by AMPA alone) [µM] | EC5X (concentration that quintuples the intensity of the current induced by AMPA alone) [µM] |
| --- | --- | --- |
| CN1CNS(=O)(=O)c2c(Cl)sc(Cl)c21 [Example 6, 5,7-Dichloro-4-methyl-3,4-dihydro-2H-thieno[3,4-e][1,2,4]thiadiazine 1,1-dioxide] | 5.4 ± 2.8 | 11.3 ± 4.9 |
| CC(C)N1CNS(=O)(=O)c2sc(Cl)cc21 [Example 4, 6-Chloro-4-isopropyl-3,4-dihydro-2H-thieno[3,2-e][1,2,4]thiadiazine 1,1-dioxide] | 4.2 ± 0.7 | 11 ± 3 |
